Data from patent US12091411B2, “IRAK degraders and uses thereof” (Kymera Therapeutics, Inc., priority 2022, dated 2024).
Where two headings read alike, the source gives them in different places.

Biological target: T1, IRAK4 (Homo sapiens, UniProt Q9NWZ3)
T1 construct: Degradation of IRAK4 in OCI-LY10 was quantitatively measured using Meso Scale Discovery technology; endogenous in cells; host or cells: OCI-LY10
T1 sequence (Q9NWZ3 1-460): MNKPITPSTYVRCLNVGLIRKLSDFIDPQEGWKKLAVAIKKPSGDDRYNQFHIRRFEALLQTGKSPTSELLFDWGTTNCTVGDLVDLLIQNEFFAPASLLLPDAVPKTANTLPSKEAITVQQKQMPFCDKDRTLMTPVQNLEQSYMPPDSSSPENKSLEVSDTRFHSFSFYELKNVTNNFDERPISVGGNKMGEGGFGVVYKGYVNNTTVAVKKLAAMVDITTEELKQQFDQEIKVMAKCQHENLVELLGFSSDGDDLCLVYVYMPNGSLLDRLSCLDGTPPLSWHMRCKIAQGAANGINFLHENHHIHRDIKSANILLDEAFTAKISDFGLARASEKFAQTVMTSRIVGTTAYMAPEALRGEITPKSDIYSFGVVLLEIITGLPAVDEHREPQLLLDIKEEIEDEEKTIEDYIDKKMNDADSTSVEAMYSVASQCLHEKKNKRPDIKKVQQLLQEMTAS
Test: IRAK4 MSD Degradation in OCI-LY10
Format: cell-based
Conditions: OCI-LY10 cells, MSD
Procedure, shortened: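 OCI-LY10 cells exposed to 8-point 1:3 compound series (top 1 to 10 μM) for 4 to 24 h at 37 °C, 5% CO2. Lysate IRAK4 quantified by MSD sandwich immunoassay. DC50 from three-parameter logistic fit, binned A (<0.01 μM) to D (>0.2 μM or not tested).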

[1] = 4 hrs incubation, read-out: IRAK4 degradation in OCI-LY10 at 4 hrs: DC50
[2] = 24 hrs incubation, read-out: IRAK4 degradation in OCI-LY10 at 24 hrs: DC50

## Cn1c(=O)n(C2CCC(=O)NC2=O)c2cccc(C#CCN3CCN(C[C@H]4CC[C@H](n5cc(NC(=O)c6cnn7ccc(N8CCCC89CC9)nc67)c(C(F)F)n5)CC4)CC3)c21 (stereo partly shown) [I-222]
[1]
  DC50: > 200 nM
[2]
  DC50: 10 to 100 nM

## Cn1c(=O)n(C2CCC(=O)NC2=O)c2cccc(C#CCN3CCN(C[C@H]4CC[C@H](n5cc(NC(=O)c6cnn7ccc(N8CCC(C)(C)C8)nc67)c(C(F)F)n5)CC4)CC3)c21 (stereo partly shown) [I-223]
[1]
  DC50: > 200 nM
[2]
  DC50: 10 to 100 nM

## Cn1c(=O)n(C2CCC(=O)NC2=O)c2cccc(C#CCN3CCN(C[C@H]4CC[C@H](n5cc(NC(=O)c6cnn7ccc(N8CCC9(CC9)C8)nc67)c(C(F)F)n5)CC4)CC3)c21 (stereo partly shown) [I-224]
[1]
  DC50: > 200 nM
[2]
  DC50: 10 to 100 nM

## Cn1c(=O)n(C2CCC(=O)NC2=O)c2cccc(C#CCN3CCN(C[C@H]4CC[C@H](n5cc(NC(=O)c6cnn7ccc(N8CC(C)(C)C8)nc67)c(C(F)F)n5)CC4)CC3)c21 (stereo partly shown) [I-225]
[1]
  DC50: > 200 nM
[2]
  DC50: < 10 nM

## Cn1c(=O)n(C2CCC(=O)NC2=O)c2cccc(C#CCN3CCN(C[C@H]4CC[C@H](n5cc(NC(=O)c6cnn7ccc(N8CC9(CC9)C8)nc67)c(C(F)F)n5)CC4)CC3)c21 (stereo partly shown) [I-226]
[1]
  DC50: > 200 nM
[2]
  DC50: < 10 nM

## Cn1c(=O)n(C2CCC(=O)NC2=O)c2cccc(C#CCN3CCN(C[C@H]4CC[C@H](n5cc(NC(=O)c6cnn7ccc(N8CCC(C)(C)CC8)nc67)c(C(F)F)n5)CC4)CC3)c21 (stereo partly shown) [I-227]
[1]
  DC50: > 200 nM
[2]
  DC50: 10 to 100 nM

## Cn1c(=O)n(C2CCC(=O)NC2=O)c2cccc(C#CCN3CCN(C[C@H]4CC[C@H](n5cc(NC(=O)c6cnn7ccc(N8CCC9(CC8)CC9)nc67)c(C(F)F)n5)CC4)CC3)c21 (stereo partly shown) [I-228]
[1]
  DC50: > 200 nM
[2]
  DC50: < 10 nM

## Cn1c(=O)n(C2CCC(=O)NC2=O)c2cccc(C#CCN3CCN(C[C@H]4CC[C@H](n5cc(NC(=O)c6cnn7ccc(N8CCCC(C)(C)C8)nc67)c(C(F)F)n5)CC4)CC3)c21 (stereo partly shown) [I-229]
[1]
  DC50: > 200 nM
[2]
  DC50: 10 to 100 nM

## Cn1c(=O)n(C2CCC(=O)NC2=O)c2cccc(C#CCN3CCN(C[C@H]4CC[C@H](n5cc(NC(=O)c6cnn7ccc(N8CCCCC8(C)C)nc67)c(C(F)F)n5)CC4)CC3)c21 (stereo partly shown) [I-230]
[1]
  DC50: > 200 nM
[2]
  DC50: 10 to 100 nM

## Cn1c(=O)n(C2CCC(=O)NC2=O)c2cccc(C#CCOC3CCN(C[C@H]4CC[C@H](n5cc(NC(=O)c6ccn7ccc(N8C[C@H]9C[C@@H]8CO9)nc67)c(C(F)F)n5)CC4)CC3)c21 (stereo partly shown) [I-231]
[1]
  DC50: > 200 nM
[2]
  DC50: > 200 nM

## Cn1c(=O)n(C2CCC(=O)NC2=O)c2cccc(C#CCOC3CCN(C[C@H]4CC[C@H](n5cc(NC(=O)c6ccn7ccc(N8C[C@@H]9C[C@H]8CO9)nc67)c(C(F)F)n5)CC4)CC3)c21 (stereo partly shown) [I-232]
[1]
  DC50: > 200 nM
[2]
  DC50: > 200 nM

## Cn1c(=O)n(C2CCC(=O)NC2=O)c2cccc(C#CCN3CCN(C[C@H]4CC[C@H](n5cc(NC(=O)c6cnn7cc(N8CCCCC8)cnc67)c(C(F)F)n5)CC4)CC3)c21 (stereo partly shown) [I-233]
[1]
  DC50: > 200 nM
[2]
  DC50: > 200 nM

## CN(C)c1cnc2c(C(=O)Nc3cn([C@H]4CC[C@H](CN5CCN(CC#Cc6cccc7c6n(C)c(=O)n7C6CCC(=O)NC6=O)CC5)CC4)nc3C(F)F)cnn2c1 (stereo partly shown) [I-234]
[1]
  DC50: > 200 nM
[2]
  DC50: 100 to 200 nM

## Cn1c(=O)n(C2CCC(=O)NC2=O)c2cccc(C#CCN3CCN(C[C@H]4CC[C@H](n5cc(NC(=O)c6cnn7cccnc67)c(C(F)F)n5)CC4)CC3)c21 (stereo partly shown) [I-235]
[1]
  DC50: > 200 nM
[2]
  DC50: 10 to 100 nM

## Cn1c(=O)n(C2CCC(=O)NC2=O)c2cccc(N3CCC4(CCN(C[C@H]5CC[C@H](n6cc(NC(=O)c7cnn8cccnc78)c(C(F)F)n6)CC5)CC4)CC3)c21 (stereo partly shown) [I-236]
[1]
  DC50: > 200 nM
[2]
  DC50: < 10 nM

## Cn1c(=O)n(C2CCC(=O)NC2=O)c2cccc(N3CCN(CC[C@H]4CC[C@H](n5cc(NC(=O)c6cnn7cccnc67)c(C(F)F)n5)CC4)CC3)c21 (stereo partly shown) [I-237]
[1]
  DC50: > 200 nM
[2]
  DC50: 10 to 100 nM

## Cn1c(=O)n(C2CCC(=O)NC2=O)c2cccc(CN3CCN(C[C@H]4CC[C@H](n5cc(NC(=O)c6cnn7cccnc67)c(C(F)F)n5)CC4)CC3)c21 (stereo partly shown) [I-238]
[1]
  DC50: > 200 nM
[2]
  DC50: > 200 nM

## Cn1c(=O)n(C2CCC(=O)NC2=O)c2cccc(N3CCC(CO[C@H]4CC[C@H](n5cc(NC(=O)c6cnn7cccnc67)c(C(F)F)n5)CC4)CC3)c21 (stereo partly shown) [I-239]
[1]
  DC50: > 200 nM
[2]
  DC50: > 200 nM

## Cn1c(=O)n(C2CCC(=O)NC2=O)c2cccc(N3CCC(OC[C@H]4CC[C@H](n5cc(NC(=O)c6cnn7cccnc67)c(C(F)F)n5)CC4)CC3)c21 (stereo partly shown) [I-240]
[1]
  DC50: > 200 nM
[2]
  DC50: > 200 nM

## C[C@@H]([C@H]1CC[C@H](n2cc(NC(=O)c3cnn4cccnc34)c(C(F)F)n2)CC1)N(C)C1CCN(c2cccc3c2n(C)c(=O)n3C2CCC(=O)NC2=O)CC1 (stereo partly shown) [I-241]
[1]
  DC50: > 200 nM
[2]
  DC50: 100 to 200 nM
